Assay results published in ChEMBL document CHEMBL1201862, “PubChem BioAssay data set” (2004).
Activity calls are given as the source filed them. Cut-off read from the data, not from the text of the source, for most assays here: actives have a measured AC50 and inactives only a lower limit.

Experiments:
[1] = target: T1, Replicative DNA helicase DnaB (Mycobacterium tuberculosis, UniProt P9WMR3); test: DnaB intein splicing inhibitors, dose response, biochemical, cell-free fluorescence (AID 449749); format: functional
T1 sequence (P9WMR3 whole entry): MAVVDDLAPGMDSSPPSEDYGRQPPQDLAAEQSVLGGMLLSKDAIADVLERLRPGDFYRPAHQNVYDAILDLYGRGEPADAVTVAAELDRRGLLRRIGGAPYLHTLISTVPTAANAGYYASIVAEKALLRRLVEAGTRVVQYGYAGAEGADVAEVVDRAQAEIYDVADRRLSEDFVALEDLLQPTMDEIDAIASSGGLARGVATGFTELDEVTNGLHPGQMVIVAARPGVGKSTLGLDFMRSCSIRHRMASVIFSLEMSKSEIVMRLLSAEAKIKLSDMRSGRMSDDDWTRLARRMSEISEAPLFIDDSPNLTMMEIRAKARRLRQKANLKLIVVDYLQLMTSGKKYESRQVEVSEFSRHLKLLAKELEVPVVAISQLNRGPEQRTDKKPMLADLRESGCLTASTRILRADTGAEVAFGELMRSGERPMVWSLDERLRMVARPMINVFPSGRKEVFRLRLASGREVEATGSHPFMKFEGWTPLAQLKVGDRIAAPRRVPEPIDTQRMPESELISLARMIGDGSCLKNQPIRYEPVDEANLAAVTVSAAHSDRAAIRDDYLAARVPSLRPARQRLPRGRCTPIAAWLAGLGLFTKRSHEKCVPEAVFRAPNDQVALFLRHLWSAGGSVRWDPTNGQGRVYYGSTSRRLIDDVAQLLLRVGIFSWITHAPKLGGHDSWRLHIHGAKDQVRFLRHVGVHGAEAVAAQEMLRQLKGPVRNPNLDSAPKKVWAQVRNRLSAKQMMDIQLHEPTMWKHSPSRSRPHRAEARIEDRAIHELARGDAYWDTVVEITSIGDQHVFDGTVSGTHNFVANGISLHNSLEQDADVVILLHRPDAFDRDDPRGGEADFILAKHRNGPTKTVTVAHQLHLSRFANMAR

[2] = target: T2, Histone-lysine N-methyltransferase NSD2 (Homo sapiens, UniProt O96028); format: biochemical
T2 sequence (O96028 whole entry): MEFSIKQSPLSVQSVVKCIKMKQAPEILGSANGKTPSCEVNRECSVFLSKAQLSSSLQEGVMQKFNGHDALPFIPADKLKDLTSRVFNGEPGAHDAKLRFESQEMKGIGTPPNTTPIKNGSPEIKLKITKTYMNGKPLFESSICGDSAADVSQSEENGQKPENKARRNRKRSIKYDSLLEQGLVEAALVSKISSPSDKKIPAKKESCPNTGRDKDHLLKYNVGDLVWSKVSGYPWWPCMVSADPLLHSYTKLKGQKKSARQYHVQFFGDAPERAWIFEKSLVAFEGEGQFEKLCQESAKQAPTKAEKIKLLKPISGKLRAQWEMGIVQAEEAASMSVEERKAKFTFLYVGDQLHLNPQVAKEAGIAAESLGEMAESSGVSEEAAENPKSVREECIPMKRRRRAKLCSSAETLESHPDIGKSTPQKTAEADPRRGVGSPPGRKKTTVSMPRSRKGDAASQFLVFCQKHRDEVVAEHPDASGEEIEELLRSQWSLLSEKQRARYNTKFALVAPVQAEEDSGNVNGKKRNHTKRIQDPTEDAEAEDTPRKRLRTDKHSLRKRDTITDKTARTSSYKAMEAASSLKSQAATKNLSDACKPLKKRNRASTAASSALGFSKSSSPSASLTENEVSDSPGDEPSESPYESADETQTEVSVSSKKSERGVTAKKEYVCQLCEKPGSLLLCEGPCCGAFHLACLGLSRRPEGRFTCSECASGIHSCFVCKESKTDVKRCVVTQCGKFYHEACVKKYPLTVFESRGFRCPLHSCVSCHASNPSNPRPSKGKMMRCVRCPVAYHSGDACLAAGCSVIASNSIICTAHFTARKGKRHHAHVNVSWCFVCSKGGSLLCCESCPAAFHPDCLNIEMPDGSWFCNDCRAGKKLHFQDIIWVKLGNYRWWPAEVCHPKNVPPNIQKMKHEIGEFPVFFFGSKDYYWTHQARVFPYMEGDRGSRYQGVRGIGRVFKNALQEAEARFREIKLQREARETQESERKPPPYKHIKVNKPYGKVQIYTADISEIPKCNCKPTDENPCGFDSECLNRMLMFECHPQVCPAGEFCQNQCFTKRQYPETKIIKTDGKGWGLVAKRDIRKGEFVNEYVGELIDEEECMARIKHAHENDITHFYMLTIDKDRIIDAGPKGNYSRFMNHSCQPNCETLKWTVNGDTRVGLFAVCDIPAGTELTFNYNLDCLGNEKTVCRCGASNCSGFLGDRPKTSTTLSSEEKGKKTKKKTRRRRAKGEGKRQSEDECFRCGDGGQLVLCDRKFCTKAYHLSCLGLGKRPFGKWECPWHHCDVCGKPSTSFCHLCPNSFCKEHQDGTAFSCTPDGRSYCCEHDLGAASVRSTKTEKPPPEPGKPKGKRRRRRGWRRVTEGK

Protein RecA = target: T3, Protein RecA (Mycobacterium tuberculosis, UniProt P9WHJ3); test: Fluorescence Cell-Free Homogeneous Dose Retest to Identify Inhibitors of RecA-Intein Splicing Activity. [Related pubchem assays (depositor defined):AID2097, AID2223, AID489010, AID492950]; format: functional
T3 sequence (P9WHJ3 whole entry): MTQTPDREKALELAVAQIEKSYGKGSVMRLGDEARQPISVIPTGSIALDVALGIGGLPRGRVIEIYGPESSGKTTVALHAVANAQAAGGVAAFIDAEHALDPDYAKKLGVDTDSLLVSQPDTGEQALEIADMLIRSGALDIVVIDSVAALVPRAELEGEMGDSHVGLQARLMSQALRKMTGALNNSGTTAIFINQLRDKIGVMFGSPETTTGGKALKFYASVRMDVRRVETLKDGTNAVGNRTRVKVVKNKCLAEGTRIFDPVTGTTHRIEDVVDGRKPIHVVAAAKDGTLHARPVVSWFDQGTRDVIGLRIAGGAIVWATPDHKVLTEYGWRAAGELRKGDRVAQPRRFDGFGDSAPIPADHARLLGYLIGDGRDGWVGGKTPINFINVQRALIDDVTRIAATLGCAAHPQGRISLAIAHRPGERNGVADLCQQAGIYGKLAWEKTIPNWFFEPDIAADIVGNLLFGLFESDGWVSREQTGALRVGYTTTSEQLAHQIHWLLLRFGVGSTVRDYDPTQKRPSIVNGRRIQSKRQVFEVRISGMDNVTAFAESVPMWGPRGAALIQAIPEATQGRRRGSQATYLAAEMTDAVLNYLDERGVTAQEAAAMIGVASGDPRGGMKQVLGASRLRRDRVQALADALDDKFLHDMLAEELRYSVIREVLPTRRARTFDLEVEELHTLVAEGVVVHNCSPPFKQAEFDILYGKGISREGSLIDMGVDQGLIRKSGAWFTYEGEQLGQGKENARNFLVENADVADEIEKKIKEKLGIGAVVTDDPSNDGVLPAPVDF

Compound	AC50 [1]	AC50 [2]	EC50 (Protein RecA)
CC1(C)Cc2ccccc2C2=NNC(=O)C2=N1	0.343 µM (active)	16.4 µM (active)	1.17 µM (active)
O=[N+]([O-])c1ccc(Sc2cccc[n+]2[O-])c2nonc12	5.25 µM (active)	5.12 µM (active)	4.93 µM (active)
CCc1ccc(S(=O)(=O)Nc2cc(SCC(=O)O)c(O)c3ccccc23)cc1	0.77 µM (active)	4.83 µM (active)	0.217 µM (active)
Oc1c(Cl)cc(Cl)c(Cl)c1Cc1c(O)c(Cl)cc(Cl)c1Cl [HEXACHLOROPHENE]	1.81 µM (active)		7.27 µM (active)
N#Cc1c(N2CCCCC2)nc(N)c2c(N)nc(SCC(=O)O)cc12	24.9 µM (active)		9.14 µM (active)
